One assay addresses T1, Human LBAT (Homo sapiens, UniProt Q14973).
T1 construct: expressed in transfected cells; kept under Geneticin selection
T1 sequence (Q14973 1-349): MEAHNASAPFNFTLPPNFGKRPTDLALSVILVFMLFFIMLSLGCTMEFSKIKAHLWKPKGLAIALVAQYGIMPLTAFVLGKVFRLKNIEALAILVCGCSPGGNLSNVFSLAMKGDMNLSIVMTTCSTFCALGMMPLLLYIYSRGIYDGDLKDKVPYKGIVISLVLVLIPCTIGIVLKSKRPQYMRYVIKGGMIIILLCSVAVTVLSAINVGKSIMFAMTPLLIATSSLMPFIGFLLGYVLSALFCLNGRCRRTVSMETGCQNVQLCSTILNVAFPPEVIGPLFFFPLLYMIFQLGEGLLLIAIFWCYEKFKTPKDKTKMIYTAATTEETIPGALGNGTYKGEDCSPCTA
Put plainly: LBAT (h/m) assay, human LBAT-overexpressing cells, 3H-taurocholic acid uptake. It counts as cell-based. As to conditions: 0.3 μM 3H-taurocholic acid and 7.5 μM cold taurocholic acid, 20 minutes, read-out: hLBAT IC50. As for the experimental part: LBAT (h/m) Assay Protocol
20,000 cells (Human or Mouse LBAT-overexpressing cells) were seeded in 96-wells plate (Corning CLS3809) in 100 μL MEM-alpha medium (Gibco 12571-063) supplemented with 10% FBS (Gibco 10438026) containing Geneticin (Gibco 10131-027) (1 mg/mL) and incubated at 37° C. in 5% CO2 for 24 hours. After incubation, media was decanted from the wells and cells were washed two times with 300 μL of basal MEM-alpha medium (FBS-free). After decanting basal MEM-alpha medium each time, plates were tapped against paper towel to ensure maximum removal of residual media.
For human LBAT, incubation mix was prepared by adding test inhibitor dilutions (3-fold serial dilution in DMSO (Sigma D2650), 10 points) in MEM-alpha (without FBS) containing 0.3 μM 3H-taurocholic acid (ARC ART-1368) and 7.5 μM cold taurocholic acid (Sigma T4009) (maintaining 0.2% final DMSO concentration). For mouse LBAT, incubation mix was prepared by adding test inhibitor dilutions (3-fold serial dilution in DMSO, 10 points) in MEM-alpha (without FBS) containing 0.3 μM 3H-taurocholic acid and 25 μM cold taurocholic acid maintaining 0.2% final DMSO concentration).
50 μL of incubation mix containing test inhibitors was then added to the wells (in duplicate) and the plates were incubated for 20 minutes in a CO2 incubator at 37° C. After incubation, the reaction was stopped by keeping the plates on ice water mix for 2-3 minutes and then the incubation mix was aspirated completely from the wells. The wells were washed two times with 250 μL of chilled unlabelled 1 mM taurocholic acid dissolved in HEPES (Gibco 15630080)-buffered (10 mM) HBSS (Gibco 14175079) (pH 7.4). The plates were tapped against a paper towel after every wash to ensure maximum removal of blocking buffer.
100 μL of MicroScint-20 (PerkinElmer 6013621) was added to the wells and kept overnight at room temperature before reading the plates in TopCount NXT™ Microplate Scintillation and Luminescence Counter from PerkinElmer under 3H Test protocol (set at 120 seconds reading time per well, with normal plate orientation).
(§1) Preparation of Test Compound Dilutions
(§2) All test compounds were provided in powder form at room temperature. 10 mM DMSO stocks of the test compounds were prepared, aliquoted and stored at −20° C. From the 10 mM DMSO stock of the compounds, a 3-fold serial dilution in DMSO was prepared to get a total of 10 dilutions of the test compounds. 0.5 μL of this dilution in DMSO was added to 250 μL of FBS-free basal media containing 3H-taurocholic acid and cold taurocholic acid to prepare the incubation mixture.

A further assay addresses T2, Human IBAT (Homo sapiens, UniProt Q12908).
T2 construct: expressed in transfected cells; kept under Puromycin selection
T2 sequence (Q12908 1-348): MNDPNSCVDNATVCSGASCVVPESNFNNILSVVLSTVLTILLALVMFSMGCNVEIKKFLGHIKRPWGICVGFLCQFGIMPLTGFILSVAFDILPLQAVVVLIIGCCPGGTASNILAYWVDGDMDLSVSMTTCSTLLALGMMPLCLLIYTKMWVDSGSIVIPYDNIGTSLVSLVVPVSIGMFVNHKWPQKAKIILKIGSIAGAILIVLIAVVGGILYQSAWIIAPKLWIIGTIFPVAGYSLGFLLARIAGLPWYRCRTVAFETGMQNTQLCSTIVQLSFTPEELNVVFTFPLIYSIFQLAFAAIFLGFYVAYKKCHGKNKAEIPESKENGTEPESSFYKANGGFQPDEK
Put plainly: IBAT (h/m) assay, human IBAT-overexpressing cells, 3H-taurocholic acid uptake. Format: cell-based. As to conditions: 0.25 μM 3H-taurocholic acid and 5 μM cold taurocholic acid, 20 minutes, highest test concentration 10 μM, read-out: hIBAT IC50. As for the experimental part:
IBAT (h/m) Assay Protocol
10,000 cells (Human or Mouse IBAT-overexpressing cells) were seeded in 96-wells plate (Corning CLS3809) in 200 μL MEM-alpha medium (Gibco 12571-063) supplemented with 10% FBS (Gibco 10438026) containing Puromycin (Gibco A1113803) (10 μg/mL) and incubated at 37° C. in 5% CO2 for 48 hours. After incubation, media was decanted from the wells and cells were washed two times with 300 μL of basal MEM-alpha medium (FBS-free). After decanting basal MEM-alpha medium each time, plates were tapped against paper towel to ensure maximum removal of residual media. Test inhibitor dilutions (highest test concentration being 10 μM, 3-fold serial dilution, 10 points) prepared in DMSO (Sigma D2650) were added in incubation mix (maintaining 0.2% final DMSO concentration) containing 0.25 μM 3H-taurocholic acid (ARC ART-1368) and 5 μM of cold taurocholic acid (Sigma T4009). 50 μL of incubation mix containing test inhibitors was then added to the wells (in duplicate) and the plates were incubated for 20 minutes in a CO2 incubator at 37° C. After incubation, the reaction was stopped by keeping the plates on ice water mix for 2-3 minutes and then the incubation mix was aspirated completely from the wells. The wells were washed two times with 250 μL of chilled unlabelled 1 mM taurocholic acid dissolved in HEPES (Gibco 15630080)-buffered (10 mM) HBSS (Gibco 14175079) (pH 7.4). The plates were tapped against a paper towel after every wash to ensure maximum removal of blocking buffer.
100 μL of MicroScint-20 (PerkinElmer 6013621) was added to the wells and kept overnight at room temperature before reading the plates in TopCount NXT™ Microplate Scintillation and Luminescence Counter from PerkinElmer under 3H Test protocol (set at 120 seconds reading time per well).
as §1, §2

Molecules are shown by their SMILES. pIC50: −log10 of the molar value.

Take `CCCCC1CN(c2ccccc2)c2cc(SC)c(OCC(C)(C)C(=O)O)cc2S(=O)(=O)N1C` (single isomer, unassigned) [2, enantiomer 1]: the pIC50 (as a rule, −log10 of the IC50, conventionally taken in molar units) is 5.64 on Human LBAT and no more than 5.00 at Human IBAT.
In the case of `CCCCC1CN(c2ccccc2)c2cc(SC)c(OCC3(C(=O)O)CC3)cc2S(=O)(=O)N1C` (single isomer, unassigned) [4, enantiomer 1], the pIC50 at Human LBAT is 6.17; on Human IBAT it was no more than 5.00.
Regarding `CCCCC1CN(c2ccccc2)c2cc(SCC)c(OCC(C)(C)C(=O)O)cc2S(=O)(=O)N1C` (single isomer, unassigned) [6, enantiomer 1], the negative logarithm of the IC50 (pIC50) on Human LBAT is 6.27.
For `CCCCC1CN(c2ccccc2)c2cc(SCC)c(OCC3(C(=O)O)CC3)cc2S(=O)(=O)N1C` (single isomer, unassigned) [8, enantiomer 2], the negative logarithm of the IC50 (pIC50) on Human LBAT was 6.23; at Human IBAT, 5.30.
For `CCCCC1CN(c2ccc(F)cc2)c2cc(SCC)c(OCC3(C(=O)O)CC3)cc2S(=O)(=O)N1` (single isomer, unassigned) [19, enantiomer 2], in that order: 6.97 and less than 5.48.
For `CCCCC1CN(c2ccccc2)c2cc(SC)c(OCC(F)(F)C(=O)O)cc2S(=O)(=O)N1C` (single isomer, unassigned) [21, enantiomer 1], the pIC50 at Human LBAT was less than 6.48; on Human IBAT, less than 5.00.
As for `CCCCC1CN(c2ccccc2)c2cc(SC)c(OCCC(=O)O)cc2S(=O)(=O)C1` (single isomer, unassigned) [26, enantiomer 1], the pIC50 on Human LBAT is 7.23.
Still for that read-out and setting: with `CCCCC1CN(c2ccccc2)c2cc(SC)c(OCC(OC)C(=O)O)cc2S(=O)(=O)N1C` (single isomer, unassigned) [31, stereoisomer 1] the figure was 5.25.
On to `CCCCC1CN(c2ccccc2)c2cc(SC)c(OCC(OC)C(=O)O)cc2S(=O)(=O)N1C` (single isomer, unassigned) [31, stereoisomer 2], for which the figures for the pIC50 on Human LBAT and at Human IBAT were 7.66 and 5.68, respectively.
As for `CCCCC1CN(c2ccccc2)c2cc(SC)c(OCC(OC)C(=O)O)cc2S(=O)(=O)N1C` (single isomer, unassigned) [32, diastereomer 2], the values for the pIC50 on Human LBAT and on Human IBAT were 7.49 and 5.32, respectively.
With `CCCCC1CN(c2ccccc2)c2cc(SC)c(OCC(C)(C)C(=O)O)cc2S(=O)(=O)N1C` (stereo not drawn) [Example 1, 3-((3-Butyl-2-methyl-7-(methylthio)-1,1-dioxido-5-phenyl-2,3,4,5-tetrahydro-1,2,5-benzothiadiazepin-8-yl)oxy)-2,2-dimethylpropanoic acid], at Human LBAT, the pIC50 was 8.01.
Take `CCCCC1CN(c2ccc(F)cc2)c2cc(SC)c(OCC(C)(C)C(=O)O)cc2S(=O)(=O)C1` (stereo not drawn) [Example 9, 3-((3-butyl-5-(4-fluorophenyl)-7-(methylthio)-1,1-dioxido-2,3,4,5-tetrahydro-1,5-benzothiazepin-8-yl)oxy)-2,2-dimethylpropanoic acid]: the negative logarithm of the IC50 (pIC50) on Human LBAT was 8.28; at Human IBAT, 5.57.
Turning to `CCCCC1CN(c2ccc(F)cc2)c2cc(SC)c(OCC3(C(=O)O)CC3)cc2S(=O)(=O)C1` (stereo not drawn) [Example 10, 1-(((3-butyl-5-(4-fluorophenyl)-7-(methylthio)-1,1-dioxido-2,3,4,5-tetrahydro-1,5-benzothiazepin-8-yl)oxy)methyl)cyclopropane-1-carboxylic acid], the values for the pIC50 at Human LBAT and on Human IBAT were 8.00 and 6.17, respectively.
In the same order, the values of `CCCCC1CN(c2ccc(F)cc2)c2cc(SC)c(OCC3(C(=O)O)CC3)cc2S(=O)(=O)N1C` (stereo not drawn) [Example 11, 1-(((3-butyl-5-(4-fluorophenyl)-2-methyl-7-(methylthio)-1,1-dioxido-2,3,4,5-tetrahydro-1,2,5-benzothiadiazepin-8-yl)oxy)methyl)cyclopropane-1-carboxylic acid] are 8.35 and 6.78.
In the same order, the values of `CCCCC1CN(c2ccccc2)c2cc(SCC)c(OCC3(C(=O)O)CC3)cc2S(=O)(=O)N1` (stereo not drawn) [Example 15, 1-(((3-butyl-7-(ethylthio)-1,1-dioxido-5-phenyl-2,3,4,5-tetrahydro-1,2,5-benzothiadiazepin-8-yl)oxy)methyl)cyclopropane-1-carboxylic acid] are 8.38 and less than 5.48.
As for `CCCCC1CN(c2ccc(F)cc2)c2cc(SC)c(OCC3(C(=O)O)CC3)cc2S(=O)(=O)N1` (stereo not drawn) [Example 16, 1-(((3-butyl-5-(4-fluorophenyl)-7-(methylthio)-1,1-dioxido-2,3,4,5-tetrahydro-1,2,5-benzothiadiazepin-8-yl)oxy)methyl)cyclopropane-1-carboxylic acid], the figures for the negative-log IC50 (pIC50) on Human LBAT and at Human IBAT were 8.47 and 6.33, respectively.
Turning to `CCCCC1CN(c2ccc(F)cc2)c2cc(SCC)c(OCC3(C(=O)O)CC3)cc2S(=O)(=O)N1` (stereo not drawn) [Example 18, 1-(((3-butyl-7-(ethylthio)-5-(4-fluorophenyl)-1,1-dioxido-2,3,4,5-tetrahydro-1,2,5-benzothiadiazepin-8-yl)oxy)methyl)cyclopropane-1-carboxylic acid], the results for the pIC50 on Human LBAT and at Human IBAT were 8.48 and 6.34, respectively.
Consider `CCCCC1CN(c2ccccc2)c2cc(SC)c(OCCC(=O)O)cc2S(=O)(=O)C1` (stereo not drawn) [Example 25, 3-((3-butyl-7-(methylthio)-1,1-dioxido-5-phenyl-2,3,4,5-tetrahydro-1,5-benzothiazepin-8-yl)oxy)propanoic acid], for which the pIC50 on Human LBAT was 7.03.
For the molecule `CCCCC1CN(c2ccccc2)c2cc(SC)c(OCC(O)C(=O)O)cc2S(=O)(=O)C1` (stereo not drawn) [Example 28, 3-((3-butyl-7-(methylthio)-1,1-dioxido-5-phenyl-2,3,4,5-tetrahydro-1,5-benzothiazepin-8-yl)oxy)-2-hydroxypropanoic acid], on Human LBAT, the negative logarithm of the IC50 (pIC50) is 6.73.
Still for that read-out and setting: for `CCCCC1CN(c2ccccc2)c2cc(SC)c(OCC(OC)C(=O)O)cc2S(=O)(=O)N1C` (stereo not drawn) [Example 30, 3-((3-butyl-2-methyl-7-(methylthio)-1,1-dioxido-5-phenyl-2,3,4,5-tetrahydro-1,2,5-benzothiadiazepin-8-yl)oxy)-2-methoxypropanoic acid] the value was 7.19.

The values above are taken from patent US12365658B2, “Benzothia(di)azepine compounds and their use as bile acid modulators” (Albireo AB, priority 2021, dated 2025).
